In brackets after ≈: the same amount, converted by molar mass. Where two headings read alike, the source gives them in different places.
Legend:
[1] = system: P. aeruginosa (ATCC 29853); assay: Broth microdilution assay, MIC/MBC; assay type: cell-based; conditions: for ratio (MBC/MIC): P. aeruginosa (ATCC 29853); for bactericidal or bacteriostatic effect: MBC/MIC ≤ 4 = bactericidal; for MBC / MIC: Pseudomonas aeruginosa
[2] = biological target: T1, M. tuberculosis DHFR enzyme (Mycobacterium tuberculosis, UniProt P9WNX1); assay: biochemical
T1 sequence (P9WNX1 1-161): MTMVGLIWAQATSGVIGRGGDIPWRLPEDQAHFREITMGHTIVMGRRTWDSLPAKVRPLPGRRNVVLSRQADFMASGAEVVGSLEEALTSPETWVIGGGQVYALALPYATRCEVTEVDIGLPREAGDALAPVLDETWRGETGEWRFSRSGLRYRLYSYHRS

S. aureus (ATCC 25923) = assay: Broth microdilution assay, MIC; assay type: cell-based; conditions: Staphylococcus aureus, ATCC25923, read-out: Minimum Inhibitory Concentration
[3] = system: M. tuberculosis (RCMB 010126); assay: Microplate alamar blue assay; assay type: cell-based, Mycobacterium tuberculosis; conditions: MABA
B. subtilis (ATCC 9372) = assay: Broth microdilution assay, MIC; assay type: cell-based; conditions: Bacillus subtilis, ATCC9372, read-out: Minimum Inhibitory Concentration
E. coli (ATCC25922) = assay: Broth microdilution assay, MIC; assay type: cell-based; conditions: Escherichia coli, ATCC25922, read-out: Minimum Inhibitory Concentration
C. albicans (ATCC 10231) = assay: Broth microdilution assay, antifungal MIC/MFC; assay type: cell-based, Candida albicans; conditions: for ratio (MFC/MIC): C. albicans (ATCC 10231); for fungicidal or fungistatic behavior: C. albicans, MFC/MIC > 4 = fungistatic; for MFC / MIC: Candida albicans
[4] = ATCC29853, read-out: Minimum Inhibitory Concentration
[5] = Mycobacterium tuberculosis, RCMB010126, sensitive Mycobacterium tuberculosis (RCMB 010126)
[6] = sensitive Mycobacterium tuberculosis (RCMB 010126)
[7] = ATCC10231, read-out: Minimum Inhibitory Concentration

Question: For `Brc1ccc(-c2csc(N3N=C(c4cccs4)CC3c3cccs3)n2)cc1` (centres unmarked) [4c, 1-(4-(4-Bromophenyl)thiazol-2-yl)-4,5-dihydro-3,5-di(thiophen-2-yl)-1H-pyrazole], which “ratio (MBC/MIC)” value [1] is on record?
Answer: The value was 4.

Question: What about the “fold more efficient than amoxicillin” value ([1]; P. aeruginosa, from MICs) of the same compound?
Answer: Its value is about 16 fold.

Question: What about the “bactericidal or bacteriostatic effect” value ([1]; P. aeruginosa) of the same compound?
Answer: The value was “bactericidal”.

Question: What about the MBC ([1]; ATCC29853) of the same compound?
Answer: The MBC was 125 µg/mL (≈ 265 µM).

Question: What about the MIC ([1]; ATCC29853) of the same compound?
Answer: The MIC was 31.2 µg/mL (≈ 66.1 µM).

Question: And the MIC [1, 4]?
Answer: Its MIC is 31.2 µg/mL (≈ 66.1 µM).

Question: And the IC50 [2]?
Answer: The IC50 was 4.21 ± 0.13 µM.

Question: And the MIC (S. aureus (ATCC 25923))?
Answer: Its MIC is 62.5 µg/mL (≈ 132 µM).

Question: What about the MIC [3, 5] of the same compound?
Answer: Its MIC is 0.12 to 1.95 µg/mL (≈ 0.254 to 4.13 µM).

Question: And the MIC [3, 6]?
Answer: Its MIC is 0.12 µg/mL (≈ 0.254 µM).

Question: And the MIC (B. subtilis (ATCC 9372))?
Answer: Its MIC is 125 µg/mL (≈ 265 µM).

Question: And the MIC (E. coli (ATCC25922))?
Answer: Its MIC is over 500 µg/mL.

Question: And the “ratio (MFC/MIC)” value (C. albicans (ATCC 10231))?
Answer: The value was 8.

Question: And the “fungicidal or fungistatic behavior” value (C. albicans (ATCC 10231))?
Answer: The value was “fungistatic”.

Question: And the MFC (C. albicans (ATCC 10231); ATCC10231)?
Answer: The MFC was 31.2 µg/mL (≈ 66.1 µM).

Question: And the MIC (C. albicans (ATCC 10231); ATCC10231)?
Answer: Its MIC is 3.9 µg/mL (≈ 8.25 µM).

Question: And the MIC (C. albicans (ATCC 10231); [7])?
Answer: The MIC was 3.9 µg/mL (≈ 8.25 µM).

Question: What does the source list for `COc1ccc(OC)c(C2CC(c3cccs3)=NN2C2=NC(=O)CS2)c1` (centres unmarked) [6b, 2-(4,5-Dihydro-5-(2,5-dimethoxyphenyl)-3-(thiophen-2-yl)pyrazol-1-yl)thiazol-4(5H)-one]?
Answer: ratio (MBC/MIC) [1]: 4; bactericidal or bacteriostatic effect ([1]; P. aeruginosa): bactericidal; MBC ([1]; ATCC29853): 15.6 µg/mL (≈ 40.3 µM); MIC ([1]; ATCC29853): 3.9 µg/mL (≈ 10.1 µM); MIC [1, 4]: 3.9 µg/mL (≈ 10.1 µM); IC50 [2]: 5.7 ± 0.28 µM; MIC (S. aureus (ATCC 25923)): 62.5 µg/mL (≈ 161 µM); MIC [3, 5]: 0.12 to 1.95 µg/mL (≈ 0.31 to 5.03 µM); MIC [3, 6]: 0.12 µg/mL (≈ 0.31 µM); MIC (B. subtilis (ATCC 9372)): 125 µg/mL (≈ 323 µM); MIC (E. coli (ATCC25922)): 125 µg/mL (≈ 323 µM); ratio (MFC/MIC) (C. albicans (ATCC 10231)): 4; MFC (C. albicans (ATCC 10231); ATCC10231): 15.6 µg/mL (≈ 40.3 µM); MIC (C. albicans (ATCC 10231); ATCC10231): 3.9 µg/mL (≈ 10.1 µM); MIC (C. albicans (ATCC 10231); [7]): 3.9 µg/mL (≈ 10.1 µM)

Question: `COc1ccc(C=C2SC(N3N=C(c4cccs4)CC3c3cc(OC)ccc3OC)=NC2=O)cc1` (centres unmarked) [8b, 5-(4-Methoxybenzylidene)-2-(4,5-dihydro-5-(2,5-dimethoxyphenyl)-3-(thiophen-2-yl)pyrazol-1-yl)thiazol-4(5H)-one] was tested. Which “ratio (MBC/MIC)” value [1] did it give?
Answer: The value was 8.

Question: What about the MBC ([1]; ATCC29853) of the same compound?
Answer: Its MBC is 500 µg/mL (≈ 989 µM).

Question: What about the MIC ([1]; ATCC29853) of the same compound?
Answer: The MIC was 62.2 µg/mL (≈ 123 µM).

Question: And the MIC [1, 4]?
Answer: The MIC was 62.2 µg/mL (≈ 123 µM).

Question: What about the IC50 [2] of the same compound?
Answer: Its IC50 is 18.5 ± 0.61 µM.

Question: And the MIC (S. aureus (ATCC 25923))?
Answer: Its MIC is 62.5 µg/mL (≈ 124 µM).

Question: And the MIC (B. subtilis (ATCC 9372))?
Answer: The MIC was 62.5 µg/mL (≈ 124 µM).

Question: What about the MIC (E. coli (ATCC25922)) of the same compound?
Answer: Its MIC is over 500 µg/mL.

Question: What about the “ratio (MFC/MIC)” value (C. albicans (ATCC 10231)) of the same compound?
Answer: The value was 4.

Question: What about the MFC (C. albicans (ATCC 10231); ATCC10231) of the same compound?
Answer: Its MFC is 125 µg/mL (≈ 247 µM).

Question: What about the MIC (C. albicans (ATCC 10231); ATCC10231) of the same compound?
Answer: The MIC was 31.2 µg/mL (≈ 61.8 µM).

Question: What about the MIC (C. albicans (ATCC 10231); [7]) of the same compound?
Answer: The MIC was 31.2 µg/mL (≈ 61.8 µM).

Question: `COc1ccc(OC)c(C2CC(c3cccs3)=NN2C2=NC(=O)C(=C3C(=O)Nc4ccccc43)S2)c1` (centres unmarked) [9b, 3-(2-(4,5-Dihydro-5-(2,5-dimethoxyphenyl)-3-(thiophen-2-yl)pyrazol-1-yl)-4-oxothiazol-5(4H)-ylidene)indolin-2-one] was tested. Which “ratio (MBC/MIC)” value [1] did it give?
Answer: Its value is 2.

Question: What about the “bactericidal or bacteriostatic effect” value ([1]; P. aeruginosa) of the same compound?
Answer: The value was “bactericidal”.

Question: What about the MBC ([1]; ATCC29853) of the same compound?
Answer: Its MBC is 125 µg/mL (≈ 242 µM).

Question: And the MIC ([1]; ATCC29853)?
Answer: The MIC was 62.2 µg/mL (≈ 120 µM).

Question: And the MIC [1, 4]?
Answer: Its MIC is 62.2 µg/mL (≈ 120 µM).

Question: What about the IC50 [2] of the same compound?
Answer: Its IC50 is 22.7 ± 0.55 µM.

Question: And the MIC (S. aureus (ATCC 25923))?
Answer: The MIC was 62.5 µg/mL (≈ 121 µM).

Question: What about the MIC (B. subtilis (ATCC 9372)) of the same compound?
Answer: The MIC was 125 µg/mL (≈ 242 µM).

Question: And the MIC (E. coli (ATCC25922))?
Answer: Its MIC is 125 µg/mL (≈ 242 µM).

Question: And the “ratio (MFC/MIC)” value (C. albicans (ATCC 10231))?
Answer: Its value is 16.

Question: And the “fungicidal or fungistatic behavior” value (C. albicans (ATCC 10231))?
Answer: Its value is “fungistatic”.

Question: What about the MFC (C. albicans (ATCC 10231); ATCC10231) of the same compound?
Answer: The MFC was 500 µg/mL (≈ 968 µM).

Question: And the MIC (C. albicans (ATCC 10231); ATCC10231)?
Answer: Its MIC is 31.2 µg/mL (≈ 60.5 µM).

Question: What about the MIC (C. albicans (ATCC 10231); [7]) of the same compound?
Answer: The MIC was 31.2 µg/mL (≈ 60.5 µM).

Question: `COc1ccc(OC)c(C2CC(c3cccs3)=NN2C2=NC(=O)CCS2)c1` (centres unmarked) [10b, 5,6-Dihydro-2-(4,5-dihydro-5-(2,5-dimethoxyphenyl)-3-(thiophen-2-yl)pyrazol-1-yl)-1,3-thiazin-4-one] was tested. Which “ratio (MBC/MIC)” value [1] did it give?
Answer: Its value is 4.

Question: What about the “bactericidal or bacteriostatic effect” value ([1]; P. aeruginosa) of the same compound?
Answer: The value was “bactericidal”.

Question: And the MBC ([1]; ATCC29853)?
Answer: The MBC was 250 µg/mL (≈ 623 µM).

Question: What about the MIC ([1]; ATCC29853) of the same compound?
Answer: Its MIC is 62.2 µg/mL (≈ 155 µM).

Question: And the MIC [1, 4]?
Answer: Its MIC is 62.2 µg/mL (≈ 155 µM).

Question: And the IC50 [2]?
Answer: Its IC50 is 10.6 ± 0.31 µM.

Question: What about the MIC (S. aureus (ATCC 25923)) of the same compound?
Answer: The MIC was 250 µg/mL (≈ 623 µM).

Question: And the MIC (B. subtilis (ATCC 9372))?
Answer: The MIC was 62.5 µg/mL (≈ 156 µM).

Question: What about the MIC (E. coli (ATCC25922)) of the same compound?
Answer: The MIC was 125 µg/mL (≈ 311 µM).

Question: What about the “ratio (MFC/MIC)” value (C. albicans (ATCC 10231)) of the same compound?
Answer: The value was 2.

Question: And the MFC (C. albicans (ATCC 10231); ATCC10231)?
Answer: The MFC was 31.2 µg/mL (≈ 77.8 µM).

Question: What about the MIC (C. albicans (ATCC 10231); ATCC10231) of the same compound?
Answer: The MIC was 15.6 µg/mL (≈ 38.9 µM).

Question: And the MIC (C. albicans (ATCC 10231); [7])?
Answer: The MIC was 15.6 µg/mL (≈ 38.9 µM).

From article PMC10600881 (ACS Omega, 2023)
